Assay results reported in patent publication US20190183910A1, “ENHANCING DNA REPAIR AND PREVENTING AGING AND ITS CONSEQUENCES IN REPRODUCTIVE AND OTHER CELLS” (NEW YORK MEDICAL COLLEGE, priority 2016, published 2019).

What was measured:
mouse sperm [1] = experiment: Apoptosis by FLICA (activated caspases) in mouse sperm; format: cell-based; settings: as a result of S1P treatment
Procedure: (§1) Treatment was performed with genotoxic stress (1 mM H2O2), S1P (200 μM), and S1P with genotoxic stress and control in culture for one hour. Also, the use of an ATM inhibitor was utilized (10 μM) (KU-55593, Abcam) (Li et al., 2014). We assessed DNA damage, apoptosis, and chromatin integrity. We also studied the DNA DSB repair gene expression by qRT-PCR in sperm lysates.
Levels of activated caspases were detected in mouse sperm samples using fluorescein-labelled inhibitors of caspases (FLICA). This cell-permeable and non-cytotoxic caspase inhibitor binds covalently to active caspases. The fluorogenic substrate becomes fluorescent on cleavage by the caspases. The inhibitors were used with the appropriate controls according to the kit instructions provided by the manufacturer (ImmunoChemistry Technologies). A 150-fold stock solution of the inhibitor was prepared in dimethylsulphoxide (DMSO). It was further diluted in phosphate-buffered saline (PBS) to yield a 30-fold working solution. Sperm samples (300 μl) were incubated at 37° C. for 1 hr with 10 μl of the working solution and subsequently washed twice with PBS. After labeling with FLICA, 1% propidium iodide (PI) in PBS was used to assess dead cells. All samples were analyzed directly by flow cytometry to detect caspase activity (Bedner et al., 2000; Darzynkiewicz et al., 2011).

MRE11 = experiment: qRT-PCR DNA DSB repair gene expression in mouse sperm lysates, MRE11; format: cell-based
Procedure: as §1
(§2) Sperm pellets previously snap-frozen in PBS were thawed. RNA was extracted using the trizol method (Rio et al., 2010). The quality and quantity of the RNA were measured with NanoDrop 2000 from Thermo Scientific. RNA (2 μg) from each sample was taken for reverse transcription with dTVN and N9 primers and SuperScript III reverse transcriptase, all procured from Invitrogen. The resulting cDNA was used to perform real-time qPCR with SYBR Green on an Applied Biosystems 7900HT Real-Time PCR machine was used. To determine the relative expression of various DNA repair genes in mouse sperm, we used the ΔΔCt method, which makes use of the expression of housekeeping genes. GAPDH was used as housekeeping gene. Primers were procured from Integrated DNA technologies (IDT) (Table 3).

mouse sperm [2] = experiment: Alkaline comet assay on mouse sperm; format: cell-based; settings: for percent tail DNA, alkaline comet: mouse sperm, n=9, mean±SEM
Procedure: as §1
Slides were prepared 48 hours prior to experimentation by coating normal glass microscope slides with 500 μl normal melting point agar (0.5% w/v in PBS) solution and left to dry at room temperature for no less than 48 hours. Then, 10 μl of mouse sperm suspension was mixed with 90 μl of 0.5% LMPA. Then this 100 μl solution was added to the NMPA-coated slides. Coverslips were added and slides were placed on a metallic tray on ice and in the dark for 5 minutes. The cover slips were removed and a 90 μl layer of LMPA was added. Cover slips were subsequently replaced before the LMPA hardened. Slides were then kept in the dark on ice again for another 5 minutes. After ten minutes, the cover slips were removed and slides were placed in staining jars containing ice cold lysing solution (2.5 M NaCl, 200 mM NaOH, 100 mM EDTA, 10 mM Trizma Base, 1% Triton X-100 and 10% DMSO [pH 10]) for 1.5 hours at 4° C. in a dark place.
After this lysis step, the slides were washed three times for 5 minutes with TE buffer (pH 8.0), and then placed flatly in the electrophoresis tank face up for 30 minutes to achieve the unwinding of the DNA. The alkaline electrophoresis buffer in this tank included 300 mM NaOH and 1 mM EDTA [pH13]. This incubation period was used to achieve the alkaline unwinding of the DNA. Electrophoresis was then performed at 25 V, 300 mA for 30 minutes. After this, slides were washed twice in neutralization buffer (0.4 M Tris, pH 7.5) for 5 minutes each. Before analysis could occur, the sperm within the slides needed to be fixed by draining the slides well on paper towels and then subjecting them to two 10 minute washes in ethanol, and then air drying at room temperature for 5 minutes. Ethidium bromide (50 μl at 10 μg/ml in water) was then added on the slide, and sealed with a cover slip. Slides were kept moist, wrapped in aluminum foil to prevent light exposure, and stored at 4° C. until analysis (Williams et al., 2014).
Slides from both alkaline and neutral comets were imaged by fluorescence microscopy using a Nikon OPTIPHOT microscope. ImageJ was used for comet assay analysis, which calculated tail length, tail moment, and % of DNA in the tail. […] To analyze the slides, an oval around the sperm head was drawn and calculated and then an oval around the sperm tail was drawn and calculated. […] It was calculated as the Pythagorean distance between two points. […]

RAD50 = experiment: qRT-PCR DNA DSB repair gene expression in mouse sperm lysates, RAD50; format: cell-based; settings: S1P treatment, no ATM inhibitor
Procedure: as §1, §2

male germ cells = settings: S1P treatment to mouse testes (Otala et al., 2004); cited from earlier work
[3] = in vivo continuous or intermittent administration to mice (Soleimani et al., 2011; Li et al, 2014); cited from earlier work

SMILES: CCCCCCCCCCCCC/C=C/[C@@H](O)[C@@H](N)COP(=O)(O)O [S1P, sphingosine 1 phosphate]
- percentage of apoptosis by FLICA (mouse sperm [1]): no significant difference
- MRE11 expression (qRT-PCR) (MRE11; S1P treatment with ATM inhibitor): no significant difference
- MRE11 expression (qRT-PCR) (MRE11; S1P treatment, no ATM inhibitor): no significant difference
- DNA damage, alkaline comet (mouse sperm [2]; S1P-treated mouse sperm with ATM inhibitor): no significant difference
- percent tail DNA, alkaline comet (mouse sperm [2]; S1P alone, without ATM inhibitor): 16.79±0.89%
- percent tail DNA, alkaline comet (mouse sperm [2]; S1P with H2O2, without ATM inhibitor): 16.8±0.87%
- RAD50 expression (qRT-PCR) (RAD50): no significant difference
- male germ cell loss by radiation-induced injury (male germ cells): decreased
- side effects [3]: no detectable side effects
